{
  "source": "patent US7402575B2",
  "about": "“Methods of treating inflammation” (priority 2003, dated 2008)",
  "key": {"[1]": {"system": "right ventricular trabecular preparation", "assay": "Adrenergic response to field stimulation or isoproterenol in right ventricular trabecular preparation", "type": "cell-based, dog", "conditions": "TAC 10^−4M", "text": "Since myocardial depression in sepsis may also be related to a diminished sympathetic response, the possible role of Lzm-S in contributing to this effect was additionally investigated in the right ventricular preparation as previously described (18). Neural adrenergic stimulation was produced in which the pulse width of the electrical stimulus-trains was increased from 2 ms to 20 ms, keeping other stimulus parameters unchanged. The increase in tension seen with sympathetic nerve stimulation was calculated as a percent increase from basal twitch amplitude. In the protocol used, the adrenergic response was measured before and after 10^−10M, 10^−9M, and 10^−8M Lzm-S were added to the organ bath. The results obtained with Lzm-S were compared with those obtained in time control experiments in which equal volumes of KH were added to the preparation at identical intervals. In a second set of experiments, it was observed whether TAC prevented the decrease in the adrenergic response produced by Lzm-S. Either TAC (10^−4M) or KH was added to an organ bath, and the results obtained with TAC treatment were compared with those obtained without the addition of the inhibitor. […]"}, "Datura stramonium lectin": {"system": "Datura stramonium lectin", "assay": "Inhibition by TAC of lectin-induced depression of isometric tension in right ventricular trabecular preparation", "type": "cell-based, dog", "conditions": "TAC 10^−4M pre-treatment", "method": "After baseline tension was determined, either the lectin or placebo was placed into respective organ baths. The concentrations of the lectins used were 10^−8M, 10^−7M, and 10^−6M based on the concentration of lysozyme found in sepsis that averaged approximately 10^−8M. In the case of Datura stramonium lectin, moreover, the effect of TAC on inhibiting the myocardial depression caused by this lectin was also examined. […] Measurements were obtained at 5 minute intervals. The changes in isometric tension measured from baseline were compared between the lectin treated and placebo preparations.\nLectins are nonenzymatic proteins that bind to carbohydrates and can be classified by their specificity for a particular sugar or polysaccharide (42). […] After baseline tension was determined, either the lectin or placebo (i.e. KH) was placed into respective organ baths in which the concentrations of the lectins used were similar to those described for Lzm-S. In the case of DSL, moreover, it was assessed whether TAC could also prevent the depression caused by this lectin."}},
  "note": "“Also recorded” adds a separate entry of the source.",
  "data": [
    {"smiles": "CC(=O)N[C@H]1[C@H](O[C@H]2[C@H](O)[C@@H](NC(C)=O)C(O)O[C@@H]2CO)O[C@H](CO)[C@@H](O[C@@H]2O[C@H](CO)[C@@H](O)[C@H](O)[C@H]2NC(C)=O)[C@@H]1O", "note": "(some centres unmarked) [TAC, N,N′,N″ triacetylglucosamine]", "values": [
      {"measurement": "Effect of pretreatment on the reduction in adrenergic response caused by Lzm-S", "setting": "[1]", "value": "prevented the reduction in adrenergic response"},
      {"measurement": "Effect of TAC on myocardial depression caused by Datura stramonium lectin", "setting": "Datura stramonium lectin", "value": "markedly attenuated; also recorded: could be reversed by pre-treatment with TAC; also recorded: blocked the isometric depression"}
    ]}
  ]
}
